Columns and labels:
keratinocytes = experiment: Taurine induced NAD+ stimulation in cultured keratinocytes; format: cell-based; conditions: for NAD+ level: keratinocytes
Method: Cell studies were conducted in which the effects of taurine and niacinamide on the NAD+ production were assessed when keratinocytes were cultured with these raw materials. In all of the tested conditions supplemented with actives, the NAD+ of the cells were increased compared to the untreated control.
Taurine has been identified as an active of interest for skin care due to its potential benefits to boost cell energy. This report explores the effect of supplementing taurine with keratinocytes to understand its effect on increasing NAD+ level in the cells. […] In our in vitro study, we observed that vitamin C, vitamin E and ferulic acid imparts significant benefits to the cell cycle and cell division. When combined with anti-aging catalyst composition, the treatment not only enhances skin renewal and resurfacing benefits but also maintains the positive effects on cell cycle and cell division. This is evident in the more pronounced impact on pathways related to skin cornification and epidermis development compared to single type treatment.

[1] = tested on: UVB-induced wrinkle formation; conditions: oral taurine supplementation; cited from earlier work
[2] = tested on: diabetic precataractous lens; conditions: dietary taurine supplementation; cited from earlier work

| Compound | NAD+ level (keratinocytes; 0.2% niacinamide) | NAD+ level (keratinocytes; 0.05% taurine) | NAD+ of the cells compared to the untreated control (keratinocytes; keratinocytes cultured with raw material) | UVB-induced wrinkle formation [1] | MDA levels, GSSG/GSH, and NAD+/NADH [2] |
| --- | --- | --- | --- | --- | --- |
| NC(=O)c1cccnc1 [niacinamide, reference compound] | higher level of NAD+ compared to 0.05% niacinamide |  |  |  |  |
| NCCS(=O)(=O)O [taurine] |  | comparable NAD+ level as compared to 0.2% niacinamide | stimulatory effect in increasing the NAD+ level | suppress | ameliorates |
